# From PubChem BioAssay (NCI)
#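 Cultured in 96-well plates, cells were exposed to test compound for 48 hours across five concentrations. Abbreviation: GI50, concentration required for 50% inhibition of growth. The concentration for full growth arrest is given as TGI.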
# Key:
# Assay in all cases: NCI anticancer screen, dose series, 48 h
# [1] = tested on: HOP-92 NSCLC
# [2] = tested on: MCF7 breast
# [3] = tested on: NCI-H23 lung
# [4] = tested on: OVCAR-5 ovarian
# [5] = tested on: OVCAR-8 ovarian
# [6] = tested on: SK-MEL-2 melanoma
# [7] = tested on: TK-10 renal
# [8] = tested on: UACC-257 melanoma
# [9] = tested on: A498 renal
# [10] = tested on: SR leukemia
Compound,GI50 [1],TGI [1],GI50 [2],TGI [2],GI50 [3],TGI [3],GI50 [4],TGI [4],GI50 [5],TGI [5],GI50 [6],TGI [6],GI50 [7],TGI [7],GI50 [8],TGI [8],TGI [9],TGI [10],GI50 [9]
O=C(O)c1ccc(NCn2nc(-c3ccccc3O)oc2=S)cc1O,> 100 µM,> 100 µM,> 100 µM,> 100 µM,> 100 µM,> 100 µM,> 100 µM,> 100 µM,> 100 µM,> 100 µM,46.8 µM,> 100 µM,> 100 µM,> 100 µM,> 100 µM,> 100 µM,,,
S=C1NC(c2ccccc2)=NC(Cc2ccccc2)(c2ccccc2)N1c1ccccc1 (configuration not stated),,> 100 µM,,,,> 100 µM,,> 100 µM,,> 100 µM,,,,> 100 µM,,> 100 µM,> 100 µM,> 100 µM,
Cc1cn2c(/C=N/NC3=NCCN3)c(-c3ccc(Cl)c([N+](=O)[O-])c3)nc2s1,0.776 µM,2.82 µM,3.8 µM,> 50 µM,5.62 µM,27 µM,6.75 µM,17.2 µM,1.12 µM,2.45 µM,0.645 µM,1.81 µM,1.05 µM,2.7 µM,1.6 µM,7.24 µM,21.4 µM,,9.4 µM
COC1OC(CO)C(O)C(NC(=O)N(C)N=O)C1O (configuration not stated),,> 100 µM,,,,> 100 µM,,,,> 100 µM,,> 100 µM,,> 100 µM,,,> 100 µM,> 100 µM,
Fc1ccc(-c2nn3c(COc4ccccc4Cl)nnc3s2)cc1Oc1ccccc1,15.2 µM,45.6 µM,52.5 µM,> 100 µM,21.2 µM,43.9 µM,33.2 µM,92.7 µM,49.9 µM,> 100 µM,,,20.5 µM,47.1 µM,> 100 µM,> 100 µM,> 100 µM,,67.6 µM
O=C1/C(=C\c2ccc(Cl)cc2)CN(C(=O)c2ccccc2)C/C1=C\c1ccc(Cl)cc1,7.18 µM,55.9 µM,0.437 µM,3.09 µM,3.13 µM,12.5 µM,5.24 µM,43.2 µM,3.41 µM,> 100 µM,16.8 µM,71.2 µM,3.59 µM,14.1 µM,5.51 µM,33.9 µM,> 74 µM,,23 µM
OCC(O)COc1ccc(F)cc1 (configuration not stated),,> 100 µM,,,,> 100 µM,,> 100 µM,,> 100 µM,,> 100 µM,,> 100 µM,,> 100 µM,> 100 µM,> 100 µM,
O=C(Cc1c(C(=O)Nc2ccccc2)sc(C(=O)Nc2ccccc2)c1CC(=O)Nc1ccccc1)Nc1ccccc1,,> 100 µM,,,,> 100 µM,,> 100 µM,,> 100 µM,,,,> 100 µM,,> 100 µM,> 100 µM,,
CC(=O)OC1C(COC(N)=O)OC(n2c(-c3ccc(C)cc3)cc(-c3ccccc3)c(C#N)c2=O)C(OC(C)=O)C1OC(C)=O (configuration not stated),,> 100 µM,,,,> 100 µM,,> 100 µM,,> 100 µM,,> 100 µM,,> 100 µM,,> 100 µM,> 100 µM,> 100 µM,
COc1cc2c3c(n(CCCNC(C)(C)CO)c(=O)c2cc1OC)-c1cc2c(cc1C3=O)OCO2,> 25.9 µM,> 53.1 µM,0.294 µM,> 50.5 µM,0.799 µM,12.3 µM,16.3 µM,36.8 µM,1.18 µM,22.4 µM,30.8 µM,> 78.5 µM,13 µM,38.6 µM,19.1 µM,49.9 µM,40.1 µM,,17.1 µM
O=C1C2=C(c3ccccc31)C(c1ccccc1Cl)NC(=S)N2 (configuration not stated),,68.4 µM,,,,> 100 µM,,> 100 µM,,> 100 µM,,> 100 µM,,> 100 µM,,> 100 µM,> 100 µM,,
O=C(O)c1cc(C(=O)C(=O)c2cc(C(=O)O)c(O)c3ccccc23)c2ccccc2c1O,,> 100 µM,,> 100 µM,,> 100 µM,,> 100 µM,,> 100 µM,,> 100 µM,,> 100 µM,,> 100 µM,> 100 µM,,
C=CCC1=C2CCCCC2CCC1=O (configuration not stated),,,,,,> 100 µM,,> 100 µM,,> 100 µM,,> 100 µM,,> 100 µM,,> 100 µM,> 100 µM,,
O=C(O)COc1ccc2c3c1C(=O)CCC3CO2 (configuration not stated),,> 100 µM,,,,> 100 µM,,> 100 µM,,> 100 µM,,> 100 µM,,> 100 µM,,> 100 µM,> 100 µM,,
COc1cc2cc(Oc3ccc(NC(=O)Nc4ccc(F)c(C(F)(F)F)c4)cc3)c(C)nc2cc1OCCN1CCOCC1,1.31 µM,4.96 µM,1.46 µM,3.48 µM,1.43 µM,5.88 µM,5.11 µM,21.7 µM,2.73 µM,> 100 µM,2.38 µM,7.58 µM,4.94 µM,25.1 µM,1.75 µM,5.17 µM,10.2 µM,,2.8 µM
CCOC(=O)c1sc(Nc2cc(Cl)ccc2Cl)nc1C,,96.6 µM,,,,> 100 µM,,> 100 µM,,> 100 µM,,> 100 µM,,> 100 µM,,> 100 µM,> 100 µM,> 100 µM,
COC(=O)C(=O)C(C(=O)C(=O)Nc1ccccc1C(N)=O)c1nc2ccc([N+](=O)[O-])cc2[nH]c1=O (configuration not stated),,> 100 µM,,,,> 100 µM,,> 100 µM,,> 100 µM,,> 100 µM,,> 100 µM,,> 100 µM,> 100 µM,> 100 µM,
CCOC(=O)Cc1csc(Nc2nc(O)c(C3=c4ccccc4=NC3=O)s2)n1,22.2 µM,52.3 µM,85.5 µM,> 100 µM,56 µM,> 100 µM,43.6 µM,> 100 µM,43.7 µM,> 100 µM,25.7 µM,> 100 µM,44.7 µM,> 100 µM,76.9 µM,> 100 µM,77.7 µM,,31.6 µM
